Measured values reported in a melting point compilation (Tetko et al.; mined from patent text by program, amines drawn as free bases though some values may be those of a salt).

First: S=C(NCCc1cccc(Cl)c1)Nc1nc2ccccc2[nH]1
Second: Nc1nc(N)c2cc(Cc3ccccc3Cl)ccc2n1
The melting point of the first is lower: 171 to 177 °C for the first, 220 to 222 °C for the second.

Compared with CC1(C)CCC(C)(C)c2cc3cc(-c4ccc(C(=O)O)o4)ccc3cc21, COc1ccc(C(=O)Nc2c(C)c(C)c3c(c2C)C(c2ccc(C(C)C)cc2)C(C)(C)O3)cc1 (stereo not given) is lower in melting point: 229 to 230 °C for the first, 202 to 205 °C for the second.

First: NNc1ccc(Cl)cc1Cl
Second: O=C/C(=C/c1ccc(Cl)cc1Cl)c1ccc(Cl)cc1
The melting point of the first is lower: 90 to 91 °C for the first, 106 to 109 °C for the second.

First: O=c1cccc(-c2nc(=O)c3ccccc3s2)[nH]1
Second: CN1Cc2nc3ccccc3c(=O)n2-c2ccccc2C1=O
The melting point of the first is higher: 214 to 215 °C for the first, 204 to 206 °C for the second.

Compared with O=C(O)CCc1nc(C(=O)O)ccc1O, CC(=O)C(=CC(=O)O)c1ccccc1 is lower in melting point: 210 to 212 °C for the first, 70 °C for the second.

First: FC(F)(F)c1cc(Cl)c(-n2ncc(CS)n2)c(Cl)c1
Second: CCC(OCC(F)(F)F)c1ccc(Cl)c2nc3n(c12)CCCN3c1ccc(Cl)cc1Cl (stereo not given)
The melting point of the first is lower: 58 to 60 °C for the first, 146 to 148 °C for the second.

NS(=O)(=O)c1ccc(-n2nc(C(F)F)cc2-c2ccc3c(c2)OCO3)cc1 and CSc1ccc(-c2c(Cl)ncn2-c2ccc(S(C)(=O)=O)cc2)cc1 cannot be ordered by melting point: 214 to 218 °C for the first, 216 to 220 °C for the second.

Compared with COc1ccc(-c2coc3ccc(-c4nnc(SCc5cccc(C(F)(F)F)c5)o4)cc23)cc1, CCOC(=O)c1ccc(-c2cnc(-c3ccc(C(F)(F)F)cc3)o2)cc1 is higher in melting point: 119 to 120 °C for the first, 142 to 143 °C for the second.

First: Cc1nc2ccccc2c2c([N+](=O)[O-])cnn12
Second: COc1ccc(S(=O)c2ccccc2)cc1[N+](=O)[O-] (stereo not given)
The melting point of the first is higher: 178 to 179 °C for the first, 135 to 137 °C for the second.

First: O=C(Nc1ccc([N+](=O)[O-])cc1)c1ccc(F)cc1
Second: NC(=O)c1ccc(NC(=O)C2CCCN(Cc3ccccc3)C2)cc1 (stereo not given)
The melting point of the first is lower: 117 to 118 °C for the first, 211 to 212 °C for the second.

First: Cc1ccccc1-c1cc(C(C)(C)C)c(O)c(C(C)(C)C)c1
Second: CC(C)(O)c1cc(OCc2ccccc2)cc(C(C)(C)O)c1
The melting point of the first is lower: 85.5 to 87.5 °C for the first, 146 to 147 °C for the second.

First: O=C(O)C=C1SC(=Nc2ccc(Br)c(Br)c2)N(c2ccc(Br)c(Br)c2)C1=O
Second: CC(O)(CC(=O)O)c1ccc(-c2ccc(Br)cc2Br)cc1 (stereo not given)
The melting point of the first is higher: 235 to 237 °C for the first, 118 to 120 °C for the second.

Compared with CC(C)(C)C1CC(CCC(=O)O)(CCC(=O)O)C(=O)C(CCC(=O)O)(CCC(=O)O)C1, CC(C)(C)OC(=O)CCc1ccc(C[C@H](NC(=O)OC(C)(C)C)C(=O)O)cc1 is lower in melting point: 209 to 212 °C for the first, 88.5 to 90 °C for the second.

Compared with CC(C)(C)c1cc(=S)cc(C(C)(C)C)o1, COc1cc(S(C)=O)c(C)cc1O (stereo not given) is higher in melting point: 108 °C for the first, 165 to 166 °C for the second.

Compared with O=C1Nc2ccccc2C1=Cc1ccccn1, Cc1nc(-c2ccccc2)ncc1C(=O)c1ccccc1 is lower in melting point: 204 to 205 °C for the first, 68 to 72 °C for the second.

First: CCCCc1ncc(C=CC(=O)O)n1Cc1ccccc1Cl
Second: CCOC(=O)C=Cc1ccc(OCc2ccccc2)c(OC)c1
The melting point of the first is higher: 178 to 179 °C for the first, 74.5 to 75 °C for the second.

Compared with N#Cc1ncn2c1[C@@H]1CCN1C(=O)c1ccccc1-2, COc1ccc2c3c1OC(c1ccccc1)N3C(=O)C1CCCN1C2=O (stereo not given) is lower in melting point: 232 to 234 °C for the first, 157 to 160 °C for the second.

First: CCOC(=O)c1ccc(-c2cc3c(Nc4ccc(F)c(Cl)c4)ncnc3[nH]2)cc1
Second: CCOC(=O)c1cn(-c2nc(NCc3ccc(OC)cc3)c(Cl)cc2F)c2c(Cl)c(F)c(F)cc2c1=O
The melting point of the first is higher: over 300 °C for the first, 168 to 171 °C for the second.

Compared with CCCCCCCCCCCCCCCCCCOc1cc(OCCCOc2ccccc2)cc(C(=O)N(CC(=O)O)CC(=O)O)c1, CCCCCCCCCCCCCCCC(=O)C1(O)OC(COCc2ccccc2)C(OCc2ccccc2)C(OCc2ccccc2)C1OCc1ccccc1 (stereo not given) is lower in melting point: 86 to 90 °C for the first, 52 to 53 °C for the second.

Compared with CN(CC(=O)C(Cc1c[nH]c2ccccc12)NC(=O)c1ccccc1)C(=O)N1CCCC1C(=O)O (stereo not given), NC(=NC(=O)Cn1c(Cl)ccc1Cl)NC(=O)c1ccccc1 is higher in melting point: 102 to 128 °C for the first, 212 to 213 °C for the second.

First: COc1ccccc1C(=NO)c1sccc1Br
Second: COC(=O)C1=C(C)NC(C)=C(C(=O)OC)C1c1ccccc1-c1ccsc1
The melting point of the first is lower: 129 to 130 °C for the first, 164 to 166 °C for the second.

First: C=Cc1ncn2c1CN(C)C(=O)c1c(Cl)cccc1-2
Second: CN1Cc2c(C#CC(C)(C)C)ncn2-c2cccc(Cl)c2C1=O
The melting point of the first is higher: 205 to 207 °C for the first, 126 to 128 °C for the second.

First: O=C(OCc1ccccc1)c1ccc(N2CCOCC2)cc1
Second: Nc1ccc(N2CCN(Cc3ccccc3)CC2)cc1CS(=O)(=O)c1ccccc1
The melting point of the first is lower: 85 to 86 °C for the first, 141 to 143 °C for the second.

First: COc1ccc(C=CC(=O)Nc2cc(Cl)ccc2C(=O)O)cc1OC
Second: NC(=O)c1c(F)ccc(OCc2nc3ccc(Cl)cc3s2)c1F
The melting point of the first is higher: 255 to 257 °C for the first, 190 to 191 °C for the second.

First: Nc1nc(-c2cccc3ccc(Br)cc23)co1
Second: Oc1ccc(Sc2nnc3cc(Cl)ccc3n2)cc1
The melting point of the first is lower: 189 to 190 °C for the first, 238 °C for the second.

Compared with COC(=O)c1ccc(N2CCCC2=O)cc1, COC(=O)c1cc(C=O)ccc1C is lower in melting point: 118 to 120 °C for the first, 60 to 61 °C for the second.

Compared with CC(C)[C@H](NC(=O)OCc1cccnc1)C(=O)N[C@@H](Cc1ccccc1)[C@@H](O)[C@@H](O)[C@H](Cc1ccccc1)NC(=O)OC(C)(C)C, CC(C)(C)OC(=O)NCc1ccc(C(=O)NCCC(=O)OCc2ccccc2)cc1 is lower in melting point: 175 to 178 °C for the first, 113 to 116 °C for the second.

First: CCCc1c(C#N)c(C(F)F)nc(C(F)(F)F)c1C(=O)OCC
Second: COC(=O)c1ccc2nc(Sc3nnc(C)s3)c(C(F)(F)F)nc2c1
The melting point of the first is lower: 40 to 41 °C for the first, 151 to 152 °C for the second.

Compared with CNN(NC)C(=O)Nc1cccc2c1C(=O)c1c-2n[nH]c1-c1ccsc1, Cc1cccc(NC(=O)NC2N=C(C3CCCCC3)c3cccc(C)c3N(C)C2=O)c1 (stereo not given) is lower in melting point: 202 °C for the first, 196 to 198 °C for the second.

First: COc1cccc(Nc2c([N+](=O)[O-])cc(C(=O)O)cc2S(N)(=O)=O)c1
Second: COC(=O)c1scc(-c2ccccc2)c1-c1ccc(S(=O)(=O)COC(C)=O)c(F)c1
The melting point of the first is higher: 253 to 254 °C for the first, 165 °C for the second.

First: COCCOc1c(F)c(Oc2ccc(S(C)(=O)=O)nc2)cc2cc(C3=NCC(CCO)S3)[nH]c12 (stereo not given)
Second: Cn1c(COc2ccc(CC3SC(=O)NC3=O)cc2)nc2ccc(Oc3ccc(NC(=O)c4ccc(F)cc4F)cc3)cc21 (stereo not given)
The melting point of the first is lower: 160 to 161 °C for the first, 172 to 174 °C for the second.

Compared with CC1COc2c(N3CCSCC3)c(F)cc3c(=O)c(C(=O)O)cn1c23 (stereo not given), Nc1nc(-c2cc(Cl)ccc2Cl)nc(N2CCCC(O)C2)n1 (stereo not given) is lower in melting point: over 300 °C for the first, 178 to 180 °C for the second.

First: c1nc(Cc2ccc3c(c2)COCO3)c[nH]1
Second: c1cncc(CSc2nnc(-c3ccc4c(c3)CCO4)o2)c1
The melting point of the first is higher: 145 °C for the first, 118 to 122 °C for the second.

First: NC(=O)C(c1cccc(F)c1)N(C(=O)c1cccn2ccnc12)C(F)(F)F (stereo not given)
Second: O=C(Nc1ncc(C(F)(F)F)o1)C1c2ccc(F)cc2Oc2cc(F)ccc21
The melting point of the first is lower: 118 to 120 °C for the first, 249 °C for the second.

Compared with CC1=C(C=O)C(C)(C)c2c(C)c(C)c(C)c(C)c21, Cc1cc(-c2[nH]c3ccc(C#N)cc3c2C)cc(C)c1O is higher in melting point: 176 °C for the first, 185 to 186 °C for the second.

Compared with Nc1ncnc2c1ncn2C[C@@H](CF)OCP(=O)(O)O, CCc1ncnc(NC(CO)CO)c1Cl is lower in melting point: 194 to 197 °C for the first, 104 to 105 °C for the second.

Compared with CCOC(=O)C(=CN(C)C)C(=O)c1cc2cc(F)c(F)c(F)c2nc1Cl, CCON=Cc1cc(-n2c(=O)n(C)c(=S)n(C)c2=O)ccc1Cl is higher in melting point: 118 °C for the first, 139 to 141 °C for the second.

Compared with O=C1CCc2cc(OCc3ccccc3)c(O)c([N+](=O)[O-])c21, O=C(NCCC[PH](=O)O)OCc1ccccc1 is lower in melting point: 252 to 254 °C for the first, 53 to 55 °C for the second.

Compared with CC(C)(C)n1c(=O)n(-c2ccnc(NC(=O)NCc3ccccn3)c2)c2ccccc21, Cn1cc(-c2cc(-c3cnc4ccccc4c3)ccn2)n(-c2ccc(C(C)(C)C#N)cc2)c1=O is higher in melting point: 164 to 165 °C for the first, 180 °C for the second.

Compared with C=CCOC(=O)c1c(C)nc2c(cnn2Cc2ccccc2)c1N, COc1ccc2cc(N)cc3c2c1C(=O)N(O)C3=O is higher in melting point: 108 °C for the first, over 250 °C for the second.

Compared with O=P12CN3CN(C1)S(=O)(=O)N(C3)C2, CN1CCCC1CCN1CCN(CCC2CCCN2C)C1=C(C#N)C#N (stereo not given) is lower in melting point: 245 to 246 °C for the first, 121 to 123 °C for the second.

Compared with CCN(CC)c1ccc(C(=O)C#Cc2ccncc2)cc1, Cc1ccc(-c2ccc(CCCCC(=O)O)s2)cc1 is higher in melting point: 85 to 87 °C for the first, 124 to 127 °C for the second.

Compared with Clc1cccc2c1C1=NCCN1C1C(c3ccccc3)CCN21 (stereo not given), O=c1[nH]c2c(c3ccccc13)c1cc(Cl)ccc1n2CC1CC1 is higher in melting point: 249 to 250 °C for the first, over 300 °C for the second.

First: N#Cc1ccc(N2CCc3nc4cc(Cl)ccc4c(Cl)c3C2)nc1
Second: COc1cc(Nc2c(C#N)cnc3cc(-c4cscc4CN4CCOCC4)ccc23)c(Cl)cc1Cl
The melting point of the first is lower: 171 to 173 °C for the first, 188 to 190 °C for the second.

First: COc1cc2c(cc1Br)C=C(C)N(C(=O)C1CC1)N=C2c1ccc(N)cc1
Second: Cc1ccc(-c2c(C)c3cc(O)ccc3n2Cc2ccc(OCCN3CCCCC3)cc2)cc1
The melting point of the first is higher: 224 to 226 °C for the first, 162 to 164 °C for the second.

First: CCCN(CCC)C1=NC2C(Br)=NN(C)C2C(O)=N1 (stereo not given)
Second: CCCOCC1CC2CCC13CN(CCC)CCC31c3cccc(O)c3OC21 (stereo not given)
The melting point of the first is higher: 186 to 187 °C for the first, 123 to 124 °C for the second.

First: C=C(C)C(=O)Oc1ccccc1NS(C)(=O)=O
Second: CC(C)Oc1ccc(CCCCC2SC(=O)NC2=O)cc1 (stereo not given)
The melting point of the first is higher: 88 to 90 °C for the first, 72 to 73 °C for the second.

First: CS(=O)(=O)c1ccc(C2=C(c3ccc(Cl)cc3)C(=O)N(C3CCCCC3)C2)cc1
Second: O=C1CSc2cc(-c3cccc([N+](=O)[O-])c3)ccc2N1
The melting point of the first is lower: 142 to 144 °C for the first, 290 to 292 °C for the second.

First: CC(=O)C(C(N)=O)=C(C)[N+](=O)[O-]
Second: CCOC(=O)c1ccc(-c2ccc(N(c3ccc(-c4ccccc4)cc3)c3ccc(-c4ccc(C(=O)OCC)cc4)cc3)cc2)cc1
The melting point of the first is lower: 159 to 161 °C for the first, 200 to 201 °C for the second.

First: COc1ncccc1-c1cccn2nc(Nc3ccc4ncccc4c3)nc12
Second: C=CC(=O)OCCOc1ccc(-c2nc(-c3ccc(C)cc3C)nc(-c3ccc(C)cc3C)n2)c(O)c1
The melting point of the first is higher: 247 to 249 °C for the first, 128 to 129 °C for the second.
